Laboratory results from patent US20070134178A1, “Skin lightening complex” (priority 2005, published 2007).

Assays:
[1] = about 20% HQ in the complex, solvent mixture of two solvents of different polarity index
Excerpt: Although the melanin-inhibiting effectiveness of HQ is desirable, water-based formulations containing high concentration HQ are difficult to prepare due to limitations in its solubility.

[2] = 25° C; cited from earlier work

times more HQ dissolved in the solvent mixture than in aqueous media [1]: about 38.5 times
SMILES: Oc1ccc(O)cc1 [HQ, 1,4-benzenediol]
HQ solubility in aqueous media [2]: up to 7.3 g/L
